“Also recorded” adds a separate entry of the source.
Experiments:
[1] = system: HNSCC cells (Cal27, Cal33); test: IncuCyte 2D and 3D spheroid killing of HNSCC; format: cell-based, human; details: 2D and 3D IncuCyte; E:T 5:1, 3 nM; irrespective of FANCA gene; vs B7-H3 single domain or IL-15 alone
Method: FIGS. 28A-28F illustrate real-time imaging assays. FIG. 28A is a graph showing Nuclight red-labeled Cal27 survival after incubation with NK cells at an E:T of 5:1 in different conditions: no treatment or 3 nM IL-15, B7-H3 SD and B7-H3 TriKE for 48 hours in an IncuCyte Zoom imager. […] FIG. 28C is a graph illustrating the size of the spheroid in FIG. 28B. FIG. 28D is a graph showing Nuclight red-labeled Cal33 survival after incubation with NK cells at an E:T of 5:1 in different conditions: no treatment or 3 nM IL-15, B7-H3 SD and B7-H3 TriKE for 48 hours in an IncuCyte Zoom imager. […] FIG. 28F is a graph illustrating the size of the spheroid in FIG. 28E.
NK cell responses against HNSCC lines in the presence of the B7-H3 TriKE were assessed through either flow cytometry based functional assays, to evaluate NK cell degranulation and cytokine secretion, or IncuCyte imaging assays, to directly assess target killing. […]
Enriched NK cells (N=4) were incubated with Nuclight red-labeled Cal27 at an E:T of 5:1 in different conditions: no treatment or 3 nM IL-15, B7-H3 SD and B7-H3 TriKE for 48 hours in an IncuCyte Zoom imager. Quantifications of percent live cells were done by normalizing hourly counts of red cells to targets alone at t=0. […] Quantifications of percent average red object area (live cells) were done by normalizing hourly counts of average red object area to targets alone at t=0. […]

[2] = system: NCI-H460 large cell lung cancer cells; test: NK cell CD107a / IFNγ flow cytometry against NCI-H460; format: cell-based, human; details: normal donor and lung cancer patient samples, vs controls
Text: FIGS. 24A-24F illustrate that B7-H3 TriKE enhances NK cell function against lung tumor targets. FIG. 24A is a graph showing pooled analysis of proportion of NK cells from healthy donors expressing CD107a+ against A549(N=6) tumor targets. FIG. 24B is a graph showing pooled analysis of proportion of NK cells from healthy donors expressing IFNγ against A549(N=6) tumor targets. FIG. 24C is a graph showing pooled analysis of proportion of NK cells from healthy donors expressing CD107a+ against NCI-H322 (N=5) tumor targets. FIG. 24D is a graph showing pooled analysis of proportion of NK cells from healthy donors expressing IFNγ against NCI-H322 (N=5) tumor targets. FIG. 24E is a graph showing pooled proportion of NK cells from healthy donors (black bars) or lung cancer patients (white bars) expressing CD107a+ against NCI-H460 (N=7). FIG. 24F is a graph showing pooled proportion of NK cells from healthy donors (black bars) or lung cancer patients (white bars) expressing IFNγ against NCI-H460 (N=7). ** p<0.01, *** p<0.001, and **** p<0.0001.
ADCC was measured in a flow cytometry assay by evaluating degranulation via CD107a (lysosomal-associated membrane protein LAMP-1) and intracellular IFNγ production. […] Samples were washed and evaluated in an LSRII flow cytometer (BD Biosciences, San Jose, CA, USA). […]

| Substance | HNSCC target cell killing by NK cells [1] | NK cell function against NCI-H460 [2] |
| --- | --- | --- |
| B7-H3 TriKE: camelid nanobodies targeting CD16 and B7-H3 joined by IL-15 and two linkers; sequence table equates the name with cam1615B7-H3 | more HNSCC target cell killing; also recorded: induced NK cell killing against HNSCC | – |
| cam1615B7-H3: second-generation TriKE: humanized camelid anti-CD16 VHH, human wild-type IL-15, anti-B7-H3 mAb 376.96 scFv; SEQ ID NO:1 | – | strongly increased NK cell function |

Reference: patent publication US20250145715A1, “B7-H3 TARGETING FUSION PROTEINS AND METHODS OF USE THEREOF” (GT Biopharma, Inc., priority 2021, published 2025)
